# From ChEMBL document CHEMBL1201862, “PubChem BioAssay data set” (2004)
# Active and inactive are the calls of the source.
# Assays:
# [1] = target: Heat shock protein HSP 90-alpha (Homo sapiens, UniProt P07900); assay type: functional, organism-based
# [2] = viability loss in HeLa cells – cytotoxicity control for MgcRacGAP inhibitor project, dose response (AID 624300); assay type: functional
# [3] = target: T1, Rac GTPase-activating protein 1 (Homo sapiens, UniProt Q9H0H5); test: blockers of MgcRacGAP-driven Rac1 GTP hydrolysis – biochemical, ADP Hunter fluorescence, primary and confirmatory, confirmation (AID 624330); assay type: functional
# T1 sequence (Q9H0H5 whole entry): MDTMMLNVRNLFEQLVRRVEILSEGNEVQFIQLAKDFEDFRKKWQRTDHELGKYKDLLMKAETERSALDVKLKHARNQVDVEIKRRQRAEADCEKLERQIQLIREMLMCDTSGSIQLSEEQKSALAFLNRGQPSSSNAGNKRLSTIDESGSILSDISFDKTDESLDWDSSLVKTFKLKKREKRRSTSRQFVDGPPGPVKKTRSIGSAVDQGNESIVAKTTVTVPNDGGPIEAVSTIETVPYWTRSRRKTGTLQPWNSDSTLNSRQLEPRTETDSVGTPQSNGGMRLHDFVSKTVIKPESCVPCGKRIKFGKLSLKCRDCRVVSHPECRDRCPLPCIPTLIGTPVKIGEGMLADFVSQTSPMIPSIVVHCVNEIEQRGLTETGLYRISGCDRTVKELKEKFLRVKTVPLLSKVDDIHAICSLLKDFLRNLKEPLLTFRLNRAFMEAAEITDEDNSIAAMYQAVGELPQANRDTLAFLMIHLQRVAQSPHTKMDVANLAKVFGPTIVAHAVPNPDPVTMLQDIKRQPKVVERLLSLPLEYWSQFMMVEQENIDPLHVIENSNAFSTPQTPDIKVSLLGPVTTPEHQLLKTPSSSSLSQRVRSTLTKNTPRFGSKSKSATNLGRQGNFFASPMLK
# [4] = target: T2, DNA repair protein RAD52 homolog (Homo sapiens, UniProt P43351); assay type: functional, biochemical
# T2 sequence (P43351 whole entry): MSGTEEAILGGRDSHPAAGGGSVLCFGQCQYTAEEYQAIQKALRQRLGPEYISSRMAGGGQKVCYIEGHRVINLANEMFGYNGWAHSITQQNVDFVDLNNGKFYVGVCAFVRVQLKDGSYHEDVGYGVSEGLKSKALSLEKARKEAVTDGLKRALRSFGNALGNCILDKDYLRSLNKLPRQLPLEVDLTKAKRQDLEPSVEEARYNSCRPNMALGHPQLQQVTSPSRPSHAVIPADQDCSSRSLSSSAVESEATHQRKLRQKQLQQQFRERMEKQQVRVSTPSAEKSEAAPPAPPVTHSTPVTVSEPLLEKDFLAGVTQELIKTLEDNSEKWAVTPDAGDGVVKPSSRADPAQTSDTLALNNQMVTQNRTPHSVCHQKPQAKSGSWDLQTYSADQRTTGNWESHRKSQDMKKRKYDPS
# Paired box protein Pax-8 = Paired box protein Pax-8 (Homo sapiens, UniProt Q06710); test: PAX8 transcriptional activity inhibition in RMG-I – RMG-I cells, luciferase, cherry-pick, dose response (AID 687027); assay type: functional, cell-based;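 further: luciferase reporter driven by Pax8 target thyroperoxidase promoter measured by SteadyGlo luminescence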
# Paired box protein Pax-8, sequence (Q06710 whole entry): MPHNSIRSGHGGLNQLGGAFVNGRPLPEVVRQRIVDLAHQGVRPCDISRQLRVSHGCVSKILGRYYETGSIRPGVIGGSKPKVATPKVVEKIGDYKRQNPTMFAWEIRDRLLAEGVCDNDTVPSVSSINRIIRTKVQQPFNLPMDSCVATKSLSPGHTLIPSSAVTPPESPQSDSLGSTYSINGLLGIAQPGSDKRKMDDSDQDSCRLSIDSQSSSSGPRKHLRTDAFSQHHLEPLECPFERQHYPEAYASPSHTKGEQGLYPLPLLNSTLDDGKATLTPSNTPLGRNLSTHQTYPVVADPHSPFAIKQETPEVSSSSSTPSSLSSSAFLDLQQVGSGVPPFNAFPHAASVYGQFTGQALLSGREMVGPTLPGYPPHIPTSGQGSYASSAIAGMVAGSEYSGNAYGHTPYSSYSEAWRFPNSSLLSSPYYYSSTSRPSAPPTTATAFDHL
# Large T antigen = Large T antigen (Simian virus 40, UniProt P03070); assay type: functional, Betapolyomavirus macacae;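 further: Confirmatory-stage PubChem screen for compounds that inhibit SV40 T antigen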
# Large T antigen, sequence (P03070 whole entry): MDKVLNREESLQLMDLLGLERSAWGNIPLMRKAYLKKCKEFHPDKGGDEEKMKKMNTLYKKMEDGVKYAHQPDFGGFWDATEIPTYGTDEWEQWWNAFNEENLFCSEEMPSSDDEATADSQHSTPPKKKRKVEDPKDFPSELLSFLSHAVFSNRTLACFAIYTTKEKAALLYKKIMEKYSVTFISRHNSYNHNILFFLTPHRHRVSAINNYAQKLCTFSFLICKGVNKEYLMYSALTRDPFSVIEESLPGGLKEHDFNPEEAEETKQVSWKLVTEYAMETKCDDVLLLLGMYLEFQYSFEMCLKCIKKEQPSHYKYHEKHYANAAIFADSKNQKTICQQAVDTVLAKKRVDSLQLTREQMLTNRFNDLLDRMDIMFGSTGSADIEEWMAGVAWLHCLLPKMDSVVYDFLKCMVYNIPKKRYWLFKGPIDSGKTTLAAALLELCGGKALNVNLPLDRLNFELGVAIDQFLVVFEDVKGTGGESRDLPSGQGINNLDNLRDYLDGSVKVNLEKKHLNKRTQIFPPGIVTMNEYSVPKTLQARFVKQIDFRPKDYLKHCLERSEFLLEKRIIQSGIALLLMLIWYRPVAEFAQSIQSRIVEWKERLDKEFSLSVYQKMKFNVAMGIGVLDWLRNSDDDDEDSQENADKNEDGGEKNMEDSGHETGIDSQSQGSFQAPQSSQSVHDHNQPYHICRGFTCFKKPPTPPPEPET
# Nonstructural protein 1 = Nonstructural protein 1 (Influenza A virus, UniProt Q194T2); assay type: functional, Influenza A virus (A/California/07/2009(H1N1))
# Nonstructural protein 1, sequence (Q194T2 whole entry): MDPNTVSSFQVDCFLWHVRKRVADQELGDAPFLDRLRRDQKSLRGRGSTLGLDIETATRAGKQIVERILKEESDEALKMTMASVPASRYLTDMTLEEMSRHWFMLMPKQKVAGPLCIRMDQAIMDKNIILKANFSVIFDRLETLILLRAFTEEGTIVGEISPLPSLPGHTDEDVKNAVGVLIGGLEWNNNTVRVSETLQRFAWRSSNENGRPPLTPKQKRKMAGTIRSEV
# [5] = target: T3, Microphthalmia-associated transcription factor (Homo sapiens, UniProt O75030); test: reducers of TRPM1 reporter luminescence, concentration series – cell-based, SK-MEL-5, cherry-picked, set 3, MITF inhibitor project, dose response (AID 493073); assay type: functional;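 further: SK-MEL-5 melanoma cells with luciferase driven by the MITF target TRPM1 promoter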
# T3 sequence (O75030 whole entry): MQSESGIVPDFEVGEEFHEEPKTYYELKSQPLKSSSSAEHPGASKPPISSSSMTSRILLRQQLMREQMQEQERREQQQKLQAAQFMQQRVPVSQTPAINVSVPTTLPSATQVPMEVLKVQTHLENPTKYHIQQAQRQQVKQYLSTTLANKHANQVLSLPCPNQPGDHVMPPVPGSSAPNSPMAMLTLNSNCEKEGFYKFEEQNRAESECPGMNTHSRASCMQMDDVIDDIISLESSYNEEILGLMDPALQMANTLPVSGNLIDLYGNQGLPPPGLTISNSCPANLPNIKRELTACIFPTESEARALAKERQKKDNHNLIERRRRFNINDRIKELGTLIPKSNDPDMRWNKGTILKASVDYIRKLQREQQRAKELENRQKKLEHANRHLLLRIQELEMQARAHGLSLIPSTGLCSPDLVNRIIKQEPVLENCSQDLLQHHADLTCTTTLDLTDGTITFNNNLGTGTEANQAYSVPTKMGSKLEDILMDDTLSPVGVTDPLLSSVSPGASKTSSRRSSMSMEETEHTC
# [6] = target: T4, Replicative DNA helicase DnaB (Mycobacterium tuberculosis, UniProt P9WMR3); test: DnaB intein splicing inhibitors, dose response, biochemical, cell-free fluorescence (AID 449749); assay type: functional
# T4 sequence (P9WMR3 whole entry): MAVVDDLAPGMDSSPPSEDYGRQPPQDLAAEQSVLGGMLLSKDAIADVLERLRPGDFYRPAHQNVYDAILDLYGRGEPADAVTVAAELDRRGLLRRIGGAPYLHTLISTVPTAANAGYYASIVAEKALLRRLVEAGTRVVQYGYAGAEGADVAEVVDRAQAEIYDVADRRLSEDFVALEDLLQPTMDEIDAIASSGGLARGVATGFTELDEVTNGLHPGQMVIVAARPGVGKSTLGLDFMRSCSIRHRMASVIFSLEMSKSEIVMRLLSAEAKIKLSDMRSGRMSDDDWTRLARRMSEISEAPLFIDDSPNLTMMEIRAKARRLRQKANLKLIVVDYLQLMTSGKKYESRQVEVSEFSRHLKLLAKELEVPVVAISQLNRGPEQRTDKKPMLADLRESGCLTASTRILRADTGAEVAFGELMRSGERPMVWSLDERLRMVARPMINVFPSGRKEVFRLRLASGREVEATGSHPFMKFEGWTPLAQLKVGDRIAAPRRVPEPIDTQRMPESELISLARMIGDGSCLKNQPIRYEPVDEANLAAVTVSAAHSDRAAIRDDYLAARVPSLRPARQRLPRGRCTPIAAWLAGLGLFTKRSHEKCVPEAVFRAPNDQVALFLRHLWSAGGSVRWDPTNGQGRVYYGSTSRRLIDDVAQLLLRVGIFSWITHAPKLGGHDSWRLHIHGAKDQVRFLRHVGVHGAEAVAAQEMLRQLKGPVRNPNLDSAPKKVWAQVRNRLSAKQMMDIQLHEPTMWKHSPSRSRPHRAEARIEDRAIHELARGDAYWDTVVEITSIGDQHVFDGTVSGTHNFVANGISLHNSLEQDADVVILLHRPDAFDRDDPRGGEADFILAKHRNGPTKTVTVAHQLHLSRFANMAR
# Protein RecA = target: T5, Protein RecA (Mycobacterium tuberculosis, UniProt P9WHJ3); test: Fluorescence Cell-Free Homogeneous Dose Retest to Identify Inhibitors of RecA-Intein Splicing Activity. [Related pubchem assays (depositor defined):AID2097, AID2223, AID489010, AID492950]; assay type: functional
# T5 sequence (P9WHJ3 whole entry): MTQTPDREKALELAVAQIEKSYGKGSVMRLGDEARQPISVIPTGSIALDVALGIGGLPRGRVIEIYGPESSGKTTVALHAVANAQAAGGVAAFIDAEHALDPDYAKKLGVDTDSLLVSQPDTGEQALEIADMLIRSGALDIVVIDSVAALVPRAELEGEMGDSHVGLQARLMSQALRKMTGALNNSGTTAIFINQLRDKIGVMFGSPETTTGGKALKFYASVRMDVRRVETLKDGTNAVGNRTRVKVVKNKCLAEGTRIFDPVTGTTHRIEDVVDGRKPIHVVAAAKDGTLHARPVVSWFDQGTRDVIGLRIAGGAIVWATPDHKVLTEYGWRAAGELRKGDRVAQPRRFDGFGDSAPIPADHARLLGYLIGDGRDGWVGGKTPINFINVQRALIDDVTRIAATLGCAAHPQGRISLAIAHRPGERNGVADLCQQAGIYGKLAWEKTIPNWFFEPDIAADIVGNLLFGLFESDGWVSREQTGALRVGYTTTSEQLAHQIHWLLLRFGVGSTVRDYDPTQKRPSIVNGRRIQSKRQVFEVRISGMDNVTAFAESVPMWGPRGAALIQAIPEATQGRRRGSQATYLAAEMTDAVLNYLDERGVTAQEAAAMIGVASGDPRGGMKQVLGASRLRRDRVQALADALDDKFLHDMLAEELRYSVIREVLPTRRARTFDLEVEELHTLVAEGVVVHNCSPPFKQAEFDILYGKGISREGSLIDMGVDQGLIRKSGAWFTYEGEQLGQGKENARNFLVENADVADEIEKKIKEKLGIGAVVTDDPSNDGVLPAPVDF
# [7] = target: Eukaryotic translation initiation factor 4E (Mus musculus, UniProt P63073); test: blockers of eIF4G binding by eIF4E – biochemical, TR-FRET, dose response (AID 855); assay type: functional;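 further: potency for disrupting eIF4E binding to eIF4GI seen as loss of FRET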
# Eukaryotic translation initiation factor 4E, sequence (P63073 whole entry): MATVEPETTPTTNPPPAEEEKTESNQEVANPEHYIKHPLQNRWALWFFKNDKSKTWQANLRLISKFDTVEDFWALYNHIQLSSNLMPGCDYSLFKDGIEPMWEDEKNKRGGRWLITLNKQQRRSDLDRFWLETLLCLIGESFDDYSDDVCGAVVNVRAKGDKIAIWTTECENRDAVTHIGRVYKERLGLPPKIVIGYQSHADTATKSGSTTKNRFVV
# [8] = NIH-3T3 fibroblast cytotoxicity, dose response, cytotoxicity control, cell-based, fluorescence, Alamar Blue, secondary assay (AID 2327); assay type: functional;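 further: NIH-3T3 mouse fibroblasts cultured with fluconazole at 8 µg/mL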
# cells [9] = assay type: functional, cell-based
# [10] = A Cell Based Secondary Assay To Explore Cytotoxicity of Compounds that Sensitize Mycobacterium Tuberculosis to Beta-Lactam Antibiotics.; assay type: functional
# [11] = fluconazole-exposed Candida albicans growth modulators – fluorescence, retest, confirmation (AID 2467); assay type: functional, cell-based
# cells [12] = assay type: functional, cell-based; remark: listed apart in the source
# [13] = target: Nuclear receptor subfamily 5 group A member 2 (Homo sapiens, UniProt O00482); assay type: functional, cell-based;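 further: HEK293T cells transfected with LRH-1 and a StAR promoter luciferase reporter; potency for inhibitors that lower LRH-1 driven reporter light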
# Nuclear receptor subfamily 5 group A member 2, sequence (O00482 whole entry): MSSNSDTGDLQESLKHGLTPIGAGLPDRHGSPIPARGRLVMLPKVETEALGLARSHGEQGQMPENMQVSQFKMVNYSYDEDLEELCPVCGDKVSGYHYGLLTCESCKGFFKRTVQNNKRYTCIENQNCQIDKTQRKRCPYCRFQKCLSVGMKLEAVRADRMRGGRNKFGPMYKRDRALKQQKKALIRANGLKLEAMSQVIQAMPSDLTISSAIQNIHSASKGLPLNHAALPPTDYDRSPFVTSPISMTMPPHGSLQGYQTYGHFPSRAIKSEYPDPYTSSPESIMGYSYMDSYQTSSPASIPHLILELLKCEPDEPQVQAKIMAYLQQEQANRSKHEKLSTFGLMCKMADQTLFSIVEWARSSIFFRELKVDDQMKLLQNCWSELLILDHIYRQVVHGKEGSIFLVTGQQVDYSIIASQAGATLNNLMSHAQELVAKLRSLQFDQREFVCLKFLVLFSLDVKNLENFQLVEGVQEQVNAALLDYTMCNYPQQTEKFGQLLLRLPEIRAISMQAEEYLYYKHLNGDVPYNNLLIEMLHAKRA
# Steroidogenic factor 1 = Steroidogenic factor 1 (Homo sapiens, UniProt Q13285); test: Counterscreen for inverse agonists of the liver receptor homolog-1 (LRH-1; NR5A2): Luminescence-based cell-based high throughput dose response assay to identify inverse agonists of the Steroidogenic Factor 1 Nuclear Receptor (SF1; NR5A1).; assay type: functional
# Steroidogenic factor 1, sequence (Q13285 whole entry): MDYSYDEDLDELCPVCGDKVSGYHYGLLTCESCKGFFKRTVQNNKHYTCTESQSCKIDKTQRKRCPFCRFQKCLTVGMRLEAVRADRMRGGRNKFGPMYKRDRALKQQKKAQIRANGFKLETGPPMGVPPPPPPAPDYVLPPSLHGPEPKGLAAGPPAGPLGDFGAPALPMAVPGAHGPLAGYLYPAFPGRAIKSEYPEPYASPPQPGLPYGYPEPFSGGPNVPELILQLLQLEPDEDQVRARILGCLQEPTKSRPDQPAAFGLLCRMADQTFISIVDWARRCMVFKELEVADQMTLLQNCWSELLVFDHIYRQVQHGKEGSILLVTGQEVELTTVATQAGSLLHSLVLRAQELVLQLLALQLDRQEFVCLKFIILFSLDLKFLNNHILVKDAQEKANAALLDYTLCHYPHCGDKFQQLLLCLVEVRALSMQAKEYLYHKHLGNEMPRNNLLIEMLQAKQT
# [14] = nonselective StAR promoter luciferase inhibitors – cell-based, luminescence, luciferase reporter, counter-screen for LRH-1 inverse agonist project, dose response (AID 651969); assay type: functional
# [15] = target: T6, Ubiquitin-conjugating enzyme E2 N (Homo sapiens, UniProt P61088); assay type: functional;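 further: Dose-response confirmation in a TR-FRET assay detecting UBC13-driven polyubiquitin chain formation, inhibition measured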
# T6 sequence (P61088 whole entry): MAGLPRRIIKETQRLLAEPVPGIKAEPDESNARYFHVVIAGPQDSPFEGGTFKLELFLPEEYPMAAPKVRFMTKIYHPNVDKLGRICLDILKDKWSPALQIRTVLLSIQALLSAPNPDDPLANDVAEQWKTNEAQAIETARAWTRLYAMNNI
# [16] = target: Luciferin 4-monooxygenase (Photinus pyralis, UniProt P08659); test: inhibition of purified Photinus pyralis luciferase – biochemical, luminescence, dose response (AID 1891)
# Luciferin 4-monooxygenase, sequence (P08659 whole entry): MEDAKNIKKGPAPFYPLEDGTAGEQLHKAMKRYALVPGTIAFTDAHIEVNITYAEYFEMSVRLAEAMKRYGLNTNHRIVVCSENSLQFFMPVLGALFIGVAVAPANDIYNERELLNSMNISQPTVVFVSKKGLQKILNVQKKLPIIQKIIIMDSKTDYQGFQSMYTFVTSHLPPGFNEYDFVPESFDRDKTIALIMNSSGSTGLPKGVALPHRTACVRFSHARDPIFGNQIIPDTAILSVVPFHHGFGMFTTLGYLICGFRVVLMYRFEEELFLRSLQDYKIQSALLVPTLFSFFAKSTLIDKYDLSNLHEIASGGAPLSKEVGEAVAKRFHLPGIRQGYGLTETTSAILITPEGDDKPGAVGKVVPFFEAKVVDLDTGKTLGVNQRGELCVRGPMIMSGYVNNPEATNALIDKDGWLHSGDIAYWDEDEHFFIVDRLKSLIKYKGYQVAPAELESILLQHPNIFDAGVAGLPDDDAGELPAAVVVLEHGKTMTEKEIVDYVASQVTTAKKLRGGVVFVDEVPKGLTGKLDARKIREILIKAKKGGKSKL
# [17] = Luminescence Cell-Based Dose Confirmation HTS to Identify Inhibitors of Platelet Dense Granule Release. [Related pubchem assays: 1663 (Primary HTS), 1678 (Summary of Project)]; assay type: functional
# [18] = viability of uninfected HEp-2 cells – cell-based, HTS, cytotoxicity control for RSV inhibitor project, dose response (AID 2410); assay type: functional; details: human respiratory syncytial virus
# cells [19] = test: cells
structure (smiles),measurement,setting,value
CCN1/C(=C/c2ccc3cc(C)ccc3[n+]2CC)Sc2cc(C)ccc21,AC50,[1],3.75 µM (active)
same,CC50,[2],23.1 µM (active)
same,IC50,[3],80.4 µM (active)
CN(C)CCOc1ccc2c(c1)C(=O)C(=Cc1ncc([N+](=O)[O-])n1C)C2,AC50,[4],7.08 µM (active)
same,AC50,Paired box protein Pax-8,1.89 µM (active)
COC1=C(Nc2ccc(O)cc2)C(=O)c2ccccc2C1=O,IC50,Large T antigen,9.88 µM (active)
same,IC50,Nonstructural protein 1,24.7 µM (active)
same,AC50,[5],5.14 µM (active)
same,AC50,[6],> 380 µM (inactive)
same,EC50,Protein RecA,1.16 µM (active)
same,CC50,[2],56.8 µM (active)
same,IC50,[3],24.4 µM (active)
O=C(NN1CCOCC1)c1cc(-c2ccc(Br)cc2)nc2ccccc12,IC50,[7],> 64 µM (inactive)
CCN(CC)S(=O)(=O)c1ccc(N/N=C(\C)c2ccc(OC)cc2O)nc1,EC50,[8],5.47 µM (active)
same,EC50,cells [9],29.1 µM (active)
same,CC50,[10],3.86 µM (active)
same,EC50,[11],> 38 µM (not active)
same,EC50,cells [12],> 350 µM (not active)
CCN(CC)CC(O)Cn1c(C)c(-c2ccccc2)c2cc([N+](=O)[O-])ccc21 (stereo not given),AC50,[4],8.3 µM (active)
O=C(Nc1cccc(Cl)c1N1CCOCC1)c1ccc([N+](=O)[O-])o1,CC50,[10],> 40 µM (active)
COc1cc2nc(N(CCCN(C)C)C(=O)c3ccc(C(=O)c4ccccc4)cc3)sc2cc1OC,AC50,[4],15.8 µM (active)
NS(=O)(=O)c1ccc(O)c(NC(=O)c2ccc([N+](=O)[O-])o2)c1,CC50,[10],> 40 µM (active)
same,IC50,[13],4.16 µM (active)
same,IC50,Steroidogenic factor 1,1.52 µM (active)
same,IC50,[14],35.9 µM (inactive)
Cc1ccc(C(=O)CSc2ncnc3sc4c(c23)CCCC4)cc1,IC50,[7],> 64 µM (inactive)
NC1=NC[C@H](Cc2ccc(O)cc2)N1CCC12CC3CC(CC(C3)C1)C2,EC50,[8],> 160 µM (inactive)
same,IC50,[15],> 20 µM (inactive)
same,AC50,[4],18.5 µM (active)
CCOc1ccccc1CN(CCc1ccc2c(c1)OCO2)Cc1ccccn1,EC50,[16],> 112 µM (not active)
same,EC50,[17],> 112 µM (not active)
same,CC50,[2],100 µM (active)
same,IC50,[3],172 µM (active)
CC(C)c1ccc(CN2CCC(C(=O)NCc3cccnc3)CC2)cc1,IC50,[7],> 64 µM (inactive)
O=C(N/N=C/c1cc([N+](=O)[O-])ccc1O)C1CC1,CC50,[10],> 40 µM (active)
Cc1cccc(C)c1-n1c(C)cc(/C=C2\C(=O)NN(c3ccccc3)C2=O)c1C,CC50,[18],36.6 µM (active)
same,CC50,[10],> 40 µM (active)
same,IC50,cells [19],7.55 µM (active)
CCCS(=O)(=O)N1CCN(S(=O)(=O)c2ccccc2)CC1,IC50,[7],> 64 µM (inactive)
COc1ccc2c(c1O)-c1cccc3c1[C@@H](C2)N(C)CC3,AC50,[4],10.7 µM (active)
